US10954228B2 (NATIONAL INSTITUTES OF HEALTH, UNITED STATES DEPARTMENT OF …, priority 2016, dated 2021)

What follows are compounds tested against Human LDHA (Homo sapiens (Human), UniProt P00338) (assay: human LDHA primary biochemical assay). Details: biochemical LDHA inhibitory activity, assay of Example 1; activity level classes defined in nM.
From the text: This example describes a human LDHA primary biochemical assay employed in the characterization of a compound of formula (I) in an embodiment of the invention.
Test compounds were placed in a Greiner Bio-One (Monroe, N.C.) 1536-well black solid bottom assay plate. 200 millimolar (mM) Tris HCl, pH 7.4, 100 micromolar (μM) EDTA and 0.01% TWEEN-20™, final concentration, was used as the assay buffer. The LDHA reagent was 2 nanomolar (nM) Human LDHA (Meridian Life Science, Inc., Memphis, Tenn.), final concentration, in assay buffer. The substrate reagent was 0.06 mM NADH and 0.2 mM sodium pyruvate, final concentration, in assay buffer. The resazurin/diaphorase coupling reagent was 0.037 mM resazurin and 0.133 milligrams per milliliter (mg/mL) diaphorase, final concentration, in assay buffer. The inhibition of LDHA activity was measured by fluorescence emission.
In the case of Cc1ccc(C#Cc2cccc(-c3nn(-c4nc(CO)cs4)c(CC4CC4)c3Cc3ccc(S(N)(=O)=O)c(F)c3)c2)s1 [Compound 181, 4-((5-(cyclopropylmethyl)-1-(4-(hydroxymethyl)thiazol-2-yl)-3-(3-((5-methylthiophen-2-yl)ethynyl)phenyl)-1H-pyrazol-4-yl)methyl)-2-fluorobenzenesulfonamide], the IC50 is reported as greater than 57000 nM.
In the case of CCc1cc(-c2cccc(-c3nn(-c4nc(C(=O)O)cs4)c(CC4CC4)c3Cc3ccc(S(N)(=O)=O)c(F)c3)c2)ccc1OC [Compound 182, 2-(5-(cyclopropylmethyl)-3-(3′-ethyl-4′-methoxy-[1,1′-biphenyl]-3-yl)-4-(3-fluoro-4-sulfamoylbenzyl)-1H-pyrazol-1-yl)thiazole-4-carboxylic acid], the IC50 is reported as 100 to 1000 nM.
NS(=O)(=O)c1ccc(Cc2c(-c3cccc(-c4ccc(C5CC5)cc4)c3)nn(-c3nc(C(=O)O)cs3)c2CC2CC2)cc1F [Compound 183, 2-(3-(4′-cyclopropyl-[1,1′-biphenyl]-3-yl)-5-(cyclopropylmethyl)-4-(3-fluoro-4-sulfamoylbenzyl)-1H-pyrazol-1-yl)thiazole-4-carboxylic acid] gave an IC50 of less than 100 nM.
With NS(=O)(=O)c1ccc(Cc2c(-c3cccc(-c4ccc(C5CCC5)cc4)c3)nn(-c3nc(C(=O)O)cs3)c2CC2CC2)cc1F [Compound 184, 2-(3-(4′-cyclobutyl-[1,1′-biphenyl]-3-yl)-5-(cyclopropylmethyl)-4-(3-fluoro-4-sulfamoylbenzyl)-1H-pyrazol-1-yl)thiazole-4-carboxylic acid] the IC50 was 100 to 1000 nM.
For Cc1cc(-c2cc(-c3nn(-c4nc(C(=O)O)cs4)c(CC4CC4)c3Cc3ccc(S(N)(=O)=O)c(F)c3)ccc2F)ccc1Cl [Compound 185, 2-(3-(4′-chloro-6-fluoro-3′-methyl-[1,1′-biphenyl]-3-yl)-5-(cyclopropylmethyl)-4-(3-fluoro-4-sulfamoylbenzyl)-1H-pyrazol-1-yl)thiazole-4-carboxylic acid], the IC50 was 100 to 1000 nM.
With CCc1cc(-c2cc(-c3nn(-c4nc(C(=O)O)cs4)c(CC4CC4)c3Cc3ccc(S(N)(=O)=O)c(F)c3)ccc2F)ccc1OC [Compound 186, 2-(5-(cyclopropylmethyl)-3-(3′-ethyl-6-fluoro-4′-methoxy-[1,1′-biphenyl]-3-yl)-4-(3-fluoro-4-sulfamoylbenzyl)-1H-pyrazol-1-yl)thiazole-4-carboxylic acid] the IC50 was 100 to 1000 nM.
With NS(=O)(=O)c1ccc(Cc2c(-c3cccc(-c4ccc(CC(F)(F)F)cc4)c3)nn(-c3nc(C(=O)O)cs3)c2CC2CC2)cc1F [Compound 187, 2-(5-(cyclopropylmethyl)-4-(3-fluoro-4-sulfamoylbenzyl)-3-(4′-(2,2,2-trifluoroethyl)-[1,1′-biphenyl]-3-yl)-1H-pyrazol-1-yl)thiazole-4-carboxylic acid] the IC50 was 100 to 1000 nM.
Compound NS(=O)(=O)c1ccc(Cc2c(-c3cccc(-c4nc5ccccc5[nH]4)c3)nn(-c3nc(C(=O)O)cs3)c2CC2CC2)cc1F [Compound 189, 2-(3-(3-(1H-benzo[d]imidazol-2-yl)phenyl)-5-(cyclopropylmethyl)-4-(3-fluoro-4-sulfamoylbenzyl)-1H-pyrazol-1-yl)thiazole-4-carboxylic acid] has an IC50 of less than 100 nM.
With COc1ccc(-c2cc(-c3nn(-c4nc(C(=O)O)cs4)c(CC4CC4)c3Cc3ccc(S(N)(=O)=O)c(F)c3)ccc2F)cc1Cl [Compound 191, 2-(3-(3′-chloro-6-fluoro-4′-methoxy-[1,1′-biphenyl]-3-yl)-5-(cyclopropylmethyl)-4-(3-fluoro-4-sulfamoylbenzyl)-1H-pyrazol-1-yl)thiazole-4-carboxylic acid] the IC50 was less than 100 nM.
For CC(C)(C)c1cccc(-c2cc(-c3nn(-c4nc(C(=O)O)cs4)c(CC4CC4)c3Cc3ccc(S(N)(=O)=O)c(F)c3)ccc2F)c1 [Compound 192, 2-(3-(3′-(tert-butyl)-6-fluoro-[1,1′-biphenyl]-3-yl)-5-(cyclopropylmethyl)-4-(3-fluoro-4-sulfamoylbenzyl)-1H-pyrazol-1-yl)thiazole-4-carboxylic acid], the IC50 was 100 to 1000 nM.
CC(C)(C)c1ccc(-c2cc(-c3nn(-c4nc(C(=O)O)cs4)c(CC4CC4)c3Cc3ccc(S(N)(=O)=O)c(F)c3)ccc2F)cc1 [Compound 193, 2-(3-(4′-(tert-butyl)-6-fluoro-[1,1′-biphenyl]-3-yl)-5-(cyclopropylmethyl)-4-(3-fluoro-4-sulfamoylbenzyl)-1H-pyrazol-1-yl)thiazole-4-carboxylic acid] was tested, and the IC50 was 100 to 1000 nM.
CN(C)c1cccc(-c2cc(-c3nn(-c4nc(C(=O)O)cs4)c(CC4CC4)c3Cc3ccc(S(N)(=O)=O)c(F)c3)ccc2F)c1 [Compound 194, 2-(5-(cyclopropylmethyl)-3-(3′-(dimethylamino)-6-fluoro-[1,1′-biphenyl]-3-yl)-4-(3-fluoro-4-sulfamoylbenzyl)-1H-pyrazol-1-yl)thiazole-4-carboxylic acid] showed an IC50 of less than 100 nM.
In the case of Cc1cc(-c2cc(-c3nn(-c4nc(C(=O)O)cs4)c(CC4CC4)c3Cc3ccc(S(N)(=O)=O)c(F)c3)ccc2F)ccc1F [Compound 195, 2-(5-(cyclopropylmethyl)-3-(4′,6-difluoro-3′-methyl-[1,1′-biphenyl]-3-yl)-4-(3-fluoro-4-sulfamoylbenzyl)-1H-pyrazol-1-yl)thiazole-4-carboxylic acid], the IC50 is reported as less than 100 nM.
In the case of Cc1ccc(-c2cccc(-c3nn(-c4nc(C(=O)O)cs4)c(CC4CC4)c3Cc3ccc(S(N)(=O)=O)c(F)c3)c2)cc1 [Compound 198, 2-(5-(cyclopropylmethyl)-4-(3-fluoro-4-sulfamoylbenzyl)-3-(4′-methyl-[1,1′-biphenyl]-3-yl)-1H-pyrazol-1-yl)thiazole-4-carboxylic acid], the IC50 is reported as less than 100 nM.
N#Cc1cccc(-c2cc(-c3nn(-c4nc(C(=O)O)cs4)c(CC4CC4)c3Cc3ccc(S(N)(=O)=O)c(F)c3)ccc2F)c1 [Compound 200, 2-(3-(3′-cyano-6-fluoro-[1,1′-biphenyl]-3-yl)-5-(cyclopropylmethyl)-4-(3-fluoro-4-sulfamoylbenzyl)-1H-pyrazol-1-yl)thiazole-4-carboxylic acid] gave an IC50 of less than 100 nM.
N#Cc1ccc(-c2cc(-c3nn(-c4nc(C(=O)O)cs4)c(CC4CC4)c3Cc3ccc(S(N)(=O)=O)c(F)c3)ccc2F)cc1 [Compound 201, 2-(3-(4′-cyano-6-fluoro-[1,1′-biphenyl]-3-yl)-5-(cyclopropylmethyl)-4-(3-fluoro-4-sulfamoylbenzyl)-1H-pyrazol-1-yl)thiazole-4-carboxylic acid] showed an IC50 of less than 100 nM.
NS(=O)(=O)c1ccc(Cc2c(-c3ccc(F)c(N4CCCC4=O)c3)nn(-c3nc(C(=O)O)cs3)c2CC2CC2)cc1F [Compound 202, 2-(5-(cyclopropylmethyl)-3-(4-fluoro-3-(2-oxopyrrolidin-1-yl)phenyl)-4-(3-fluoro-4-sulfamoylbenzyl)-1H-pyrazol-1-yl)thiazole-4-carboxylic acid] gave an IC50 of less than 100 nM.
In the case of Cc1ccc(-c2cccc(-c3nn(-c4nc(C(=O)O)cs4)c(CC4CC4)c3Cc3ccc(S(N)(=O)=O)c(F)c3)c2)nc1 [Compound 203, 2-(5-(cyclopropylmethyl)-4-(3-fluoro-4-sulfamoylbenzyl)-3-(3-(5-methylpyridin-2-yl)phenyl)-1H-pyrazol-1-yl)thiazole-4-carboxylic acid], the IC50 is reported as less than 100 nM.
Cc1ccc(-c2cccc(-c3nn(-c4nc(C(=O)O)cs4)c(CC4CC4)c3Cc3ccc(S(N)(=O)=O)c(F)c3)c2)cn1 [Compound 204, 2-(5-(cyclopropylmethyl)-4-(3-fluoro-4-sulfamoylbenzyl)-3-(3-(6-methylpyridin-3-yl)phenyl)-1H-pyrazol-1-yl)thiazole-4-carboxylic acid] showed an IC50 of less than 100 nM.
Work on NS(=O)(=O)c1ccc(Cc2c(-c3cccc(-c4ccc(C(F)(F)C(F)(F)F)cc4)c3)nn(-c3nc(C(=O)O)cs3)c2CCC2CC2)cc1F [Compound 205, 2-(5-(2-cyclopropylethyl)-4-(3-fluoro-4-sulfamoylbenzyl)-3-(4′-(perfluoroethyl)-[1,1′-biphenyl]-3-yl)-1H-pyrazol-1-yl)thiazole-4-carboxylic acid] yielded an IC50 of 100 to 1000 nM.
In the case of CC(C)c1ccc(-c2cccc(-c3nn(-c4nc(C(=O)O)cs4)c(CCC4CC4)c3Cc3ccc(S(N)(=O)=O)c(F)c3)c2)cc1 [Compound 206, 2-(5-(2-cyclopropylethyl)-4-(3-fluoro-4-sulfamoylbenzyl)-3-(4′-isopropyl-[1,1′-biphenyl]-3-yl)-1H-pyrazol-1-yl)thiazole-4-carboxylic acid], the IC50 is reported as 100 to 1000 nM.
CC(C)Cc1ccc(-c2cccc(-c3nn(-c4nc(C(=O)O)cs4)c(CCC4CC4)c3Cc3ccc(S(N)(=O)=O)c(F)c3)c2)cc1 [Compound 207, 2-(5-(2-cyclopropylethyl)-4-(3-fluoro-4-sulfamoylbenzyl)-3-(4′-isobutyl-[1,1′-biphenyl]-3-yl)-1H-pyrazol-1-yl)thiazole-4-carboxylic acid] showed an IC50 of 100 to 1000 nM.
Compound Cc1ccc(-c2ccc(-c3cccc(-c4nn(-c5nc(C(=O)O)cs5)c(CC5CC5)c4Cc4ccc(S(N)(=O)=O)c(F)c4)c3)cc2)s1 [Compound 208, 2-(5-(cyclopropylmethyl)-4-(3-fluoro-4-sulfamoylbenzyl)-3-(4′-(5-methylthiophen-2-yl)-[1,1′-biphenyl]-3-yl)-1H-pyrazol-1-yl)thiazole-4-carboxylic acid] has an IC50 of 100 to 1000 nM.
Cc1ccc(-c2ccc(-c3cc(-c4nn(-c5nc(C(=O)O)cs5)c(CC5CC5)c4Cc4ccc(S(N)(=O)=O)c(F)c4)ccc3F)cc2)s1 [Compound 209, 2-(5-(cyclopropylmethyl)-3-(6-fluoro-4′-(5-methylthiophen-2-yl)-[1,1′-biphenyl]-3-yl)-4-(3-fluoro-4-sulfamoylbenzyl)-1H-pyrazol-1-yl)thiazole-4-carboxylic acid] was tested, and the IC50 was 100 to 1000 nM.
